#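 Following 48 hours of exposure in 96-well plates, responses at five concentrations were used to interpolate endpoints linearly. TGI marks complete inhibition of growth.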
# What was measured:
# Assay in all cases: NCI tumour cell line growth inhibition, 48 h
# 786-0 renal = system: 786-0 renal
# A498 renal = system: A498 renal
# A549 NSCLC = system: A549 NSCLC
# ACHN renal = system: ACHN renal
# CAKI-1 renal = system: CAKI-1 renal
# CCRF-CEM leukemia = system: CCRF-CEM leukemia
# COLO 205 colon = system: COLO 205 colon
# DLD-1 colon = system: DLD-1 colon
# DMS 114 small cell lung = system: DMS 114 small cell lung
# DMS 273 small cell lung = system: DMS 273 small cell lung
# HCC-2998 colon = system: HCC-2998 colon
# HCT-116 colon = system: HCT-116 colon
# HCT-15 colon = system: HCT-15 colon
# HL-60(TB) leukemia = system: HL-60(TB) leukemia
# HOP-18 NSCLC = system: HOP-18 NSCLC
# HOP-62 NSCLC = system: HOP-62 NSCLC
# HOP-92 NSCLC = system: HOP-92 NSCLC
# HT29 colon = system: HT29 colon
# IGROV1 ovarian = system: IGROV1 ovarian
# K-562 leukemia = system: K-562 leukemia
# KM12 colon = system: KM12 colon
# KM20L2 colon = system: KM20L2 colon
# LOX IMVI melanoma = system: LOX IMVI melanoma
# LXFL 529 NSCLC = system: LXFL 529 NSCLC
# M14 melanoma = system: M14 melanoma
# M19-MEL melanoma = system: M19-MEL melanoma
# MALME-3M melanoma = system: MALME-3M melanoma
# MOLT-4 leukemia = system: MOLT-4 leukemia
# NCI-H23 lung = system: NCI-H23 lung
# NCI-H460 lung = system: NCI-H460 lung
# NCI-H522 lung = system: NCI-H522 lung
# OVCAR-3 ovarian = system: OVCAR-3 ovarian
# OVCAR-4 ovarian = system: OVCAR-4 ovarian
# OVCAR-5 ovarian = system: OVCAR-5 ovarian
# OVCAR-8 ovarian = system: OVCAR-8 ovarian
# RPMI-8226 leukemia = system: RPMI-8226 leukemia
# RXF 393 renal = system: RXF 393 renal
# SF-268 CNS = system: SF-268 CNS
# SF-295 CNS = system: SF-295 CNS
# SF-539 CNS = system: SF-539 CNS
# SK-MEL-2 melanoma = system: SK-MEL-2 melanoma
# SK-MEL-28 melanoma = system: SK-MEL-28 melanoma
# SK-MEL-5 melanoma = system: SK-MEL-5 melanoma
# SK-OV-3 ovarian = system: SK-OV-3 ovarian
# SN12C renal = system: SN12C renal
# SNB-19 CNS = system: SNB-19 CNS
# SNB-75 CNS = system: SNB-75 CNS
# SR leukemia = system: SR leukemia
# SW-620 colon = system: SW-620 colon
# TK-10 renal = system: TK-10 renal
# U251 CNS = system: U251 CNS
# UACC-62 melanoma = system: UACC-62 melanoma
# UO-31 renal = system: UO-31 renal
# EKVX NSCLC = system: EKVX NSCLC
# NCI-H226 lung = system: NCI-H226 lung
# SNB-78 CNS = system: SNB-78 CNS
# UACC-257 melanoma = system: UACC-257 melanoma
smiles,measurement,setting,value
COc1ccc(CN2CCC/C=C/CC(Cl)(Cl)C2=O)cc1,TGI,786-0 renal,> 100 µM
same,TGI,A498 renal,73.7 µM
same,TGI,A549 NSCLC,> 100 µM
same,TGI,ACHN renal,78.8 µM
same,TGI,CAKI-1 renal,> 100 µM
same,TGI,CCRF-CEM leukemia,> 100 µM
same,TGI,COLO 205 colon,41.2 µM
same,TGI,DLD-1 colon,> 100 µM
same,TGI,DMS 114 small cell lung,71.3 µM
same,TGI,DMS 273 small cell lung,> 100 µM
same,TGI,HCC-2998 colon,> 100 µM
same,TGI,HCT-116 colon,> 100 µM
same,TGI,HCT-15 colon,> 100 µM
same,TGI,HL-60(TB) leukemia,69.2 µM
same,TGI,HOP-18 NSCLC,> 100 µM
same,TGI,HOP-62 NSCLC,> 100 µM
same,TGI,HOP-92 NSCLC,62.5 µM
same,TGI,HT29 colon,> 100 µM
same,TGI,IGROV1 ovarian,> 100 µM
same,TGI,K-562 leukemia,> 100 µM
same,TGI,KM12 colon,> 100 µM
same,TGI,KM20L2 colon,> 100 µM
same,TGI,LOX IMVI melanoma,> 100 µM
same,TGI,LXFL 529 NSCLC,> 100 µM
same,TGI,M14 melanoma,57 µM
same,TGI,M19-MEL melanoma,95.2 µM
same,TGI,MALME-3M melanoma,87.7 µM
same,TGI,MOLT-4 leukemia,68 µM
same,TGI,NCI-H23 lung,99.5 µM
same,TGI,NCI-H460 lung,> 100 µM
same,TGI,NCI-H522 lung,59.4 µM
same,TGI,OVCAR-3 ovarian,> 100 µM
same,TGI,OVCAR-4 ovarian,98.8 µM
same,TGI,OVCAR-5 ovarian,> 100 µM
same,TGI,OVCAR-8 ovarian,> 100 µM
same,TGI,RPMI-8226 leukemia,69.4 µM
same,TGI,RXF 393 renal,78.7 µM
same,TGI,SF-268 CNS,> 100 µM
same,TGI,SF-295 CNS,68.6 µM
same,TGI,SF-539 CNS,> 100 µM
same,TGI,SK-MEL-2 melanoma,44.8 µM
same,TGI,SK-MEL-28 melanoma,> 100 µM
same,TGI,SK-MEL-5 melanoma,35 µM
same,TGI,SK-OV-3 ovarian,> 100 µM
same,TGI,SN12C renal,> 100 µM
same,TGI,SNB-19 CNS,95.4 µM
same,TGI,SNB-75 CNS,64.8 µM
same,TGI,SR leukemia,68.8 µM
same,TGI,SW-620 colon,> 100 µM
same,TGI,TK-10 renal,> 100 µM
same,TGI,U251 CNS,> 100 µM
same,TGI,UACC-62 melanoma,> 100 µM
same,TGI,UO-31 renal,57.4 µM
CCC(=O)Nc1nc2c(ncn2C2OC(COC(=O)CC)C(OC(=O)CC)C2OC(=O)CC)c(=O)[nH]1 (configuration not stated),TGI,786-0 renal,> 100 µM
same,TGI,A498 renal,> 100 µM
same,TGI,A549 NSCLC,> 100 µM
same,TGI,ACHN renal,> 100 µM
same,TGI,CAKI-1 renal,> 100 µM
same,TGI,DMS 273 small cell lung,> 100 µM
same,TGI,EKVX NSCLC,> 100 µM
same,TGI,HCC-2998 colon,> 100 µM
same,TGI,HCT-116 colon,> 100 µM
same,TGI,HCT-15 colon,> 100 µM
same,TGI,HL-60(TB) leukemia,> 100 µM
same,TGI,HOP-62 NSCLC,> 100 µM
same,TGI,HT29 colon,> 100 µM
same,TGI,IGROV1 ovarian,> 100 µM
same,TGI,K-562 leukemia,> 100 µM
same,TGI,KM12 colon,> 100 µM
same,TGI,KM20L2 colon,> 100 µM
same,TGI,LOX IMVI melanoma,> 100 µM
same,TGI,LXFL 529 NSCLC,> 100 µM
same,TGI,M14 melanoma,> 100 µM
same,TGI,M19-MEL melanoma,> 100 µM
same,TGI,MALME-3M melanoma,> 100 µM
same,TGI,MOLT-4 leukemia,> 100 µM
same,TGI,NCI-H226 lung,> 100 µM
same,TGI,NCI-H460 lung,> 100 µM
same,TGI,NCI-H522 lung,> 100 µM
same,TGI,OVCAR-3 ovarian,> 100 µM
same,TGI,OVCAR-4 ovarian,> 100 µM
same,TGI,OVCAR-5 ovarian,> 100 µM
same,TGI,OVCAR-8 ovarian,> 100 µM
same,TGI,RPMI-8226 leukemia,> 100 µM
same,TGI,RXF 393 renal,> 100 µM
same,TGI,SF-268 CNS,> 100 µM
same,TGI,SF-295 CNS,> 100 µM
same,TGI,SF-539 CNS,> 100 µM
same,TGI,SK-MEL-2 melanoma,> 100 µM
same,TGI,SK-MEL-28 melanoma,> 100 µM
same,TGI,SK-MEL-5 melanoma,> 100 µM
same,TGI,SK-OV-3 ovarian,> 100 µM
same,TGI,SN12C renal,> 100 µM
same,TGI,SNB-19 CNS,> 100 µM
same,TGI,SNB-75 CNS,> 100 µM
same,TGI,SNB-78 CNS,> 100 µM
same,TGI,SR leukemia,> 100 µM
same,TGI,SW-620 colon,> 100 µM
same,TGI,U251 CNS,> 100 µM
same,TGI,UACC-257 melanoma,> 100 µM
same,TGI,UACC-62 melanoma,> 100 µM
same,TGI,UO-31 renal,> 100 µM

# Reference: PubChem BioAssay (NCI)
